Measurements published in US10660876B2, “Amino compounds for treatment of medical disorders” (Achillion Pharmaceuticals, Inc., priority 2015, dated 2020).

Molecular target: Human Factor D (Homo sapiens (Human), UniProt P00746)
Assay: Human Factor D Assay
Format: biochemical
Settings: Table 1; Factor D purified from human serum, 80 nM, substrate Z-L-Lys-SBzl; read-out: IC50
Method: Example 12. Human Factor D Assay
Human Factor D (purified from human serum, Complement Technology, Inc.) at 80 nM final concentration is incubated with test compound at various concentrations for 5 minutes at room temperature in 50 mM Tris, 1M NaCl, pH 7.5. A synthetic substrate Z-L-Lys-SBzl and DTNB (Ellman's reagent) are added to final concentrations of 100 μM each. Absorbance at 405 nm (A405) is recorded at 30 second intervals for 30 minutes using a microplate spectrophotometer. IC50 values are calculated by nonlinear regression of complement Factor D reaction rates as a function of test compound concentration.

Sequence of Human Factor D (P00746 26-253): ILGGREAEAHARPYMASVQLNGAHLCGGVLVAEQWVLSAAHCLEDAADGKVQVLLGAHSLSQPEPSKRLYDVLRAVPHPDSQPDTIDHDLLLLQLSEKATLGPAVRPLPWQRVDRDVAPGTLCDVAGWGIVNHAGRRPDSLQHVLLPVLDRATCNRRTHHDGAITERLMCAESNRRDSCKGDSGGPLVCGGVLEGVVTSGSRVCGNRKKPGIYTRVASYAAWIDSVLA

Row | SMILES | IC50 [nM]
1 | CC(=O)c1cn(CC(=O)N2C[C@H](F)C[C@H]2C(=O)NCc2cccc(Cl)c2F)c2cc(NS(=O)(=O)C(F)(F)F)ccc12 [Compound 2, (2S,4R)-1-(2-(3-acetyl-6-(trifluoromethyl-sulfonamido)-1H-indol-1-yl)acetyl)-N-(3-chloro-2-fluorobenzyl)-4-fluoropyrrolidine-2-carboxamide] | < 1000
2 | CC(=O)c1cn(CC(=O)N2C[C@H](F)C[C@H]2C(=O)Nc2cccc(-c3ccccc3Cl)c2F)c2ccc(Nc3cncnc3)cc12 [Compound 3, (2S,4R)-1-(2-(3-acetyl-5-(pyrimidin-5-ylamino)-1H-indol-1-yl)acetyl)-N-(2′-chloro-2-fluorobiphenyl-3-yl)-4-fluoropyrrolidine-2-carboxamide] | < 1000
3 | CC(=O)c1cn(CC(=O)N2C[C@H](F)C[C@H]2C(=O)Nc2cccc(Br)n2)c2ccc(Nc3cncnc3)cc12 [Compound 4, (2S,4R)-1-(2-(3-acetyl-5-(pyrimidin-5-ylamino)-1H-indol-1-yl)acetyl)-N-(6-bromopyridin-2-yl)-4-fluoropyrrolidine-2-carboxamide] | < 1000
4 | CC(=O)c1cn(CC(=O)N2C[C@H](F)C[C@H]2C(=O)Nc2cccc(Cl)n2)c2ccc(Nc3cncnc3)cc12 [Compound 6, (2S,4R)-1-(2-(3-acetyl-5-(pyrimidin-5-ylamino)-1H-indol-1-yl)acetyl)-N-(6-chloropyridin-2-yl)-4-fluoropyrrolidine-2-carboxamide] | < 1000
5 | NC(=O)c1nn(CC(=O)N2C[C@H](F)C[C@H]2C(=O)Nc2cccc(-c3ccccc3Cl)c2F)c2ccc(Nc3cccnn3)cc12 [Compound 9, 1-(2-((2S,4R)-2-(2′-chloro-2-fluorobiphenyl-3-ylcarbamoyl)-4-fluoropyrrolidin-1-yl)-2-oxoethyl)-5-(pyridazin-3-ylamino)-1H-indazole-3-carboxamide] | < 1000
6 | NC(=O)c1nn(CC(=O)N2C[C@H](F)C[C@H]2C(=O)Nc2cccc(-c3ccccc3Cl)c2F)c2ccc(Nc3cncnc3)cc12 [Compound 10, 1-(2-((2S,4R)-2-(2′-chloro-2-fluorobiphenyl-3-ylcarbamoyl)-4-fluoropyrrolidin-1-yl)-2-oxoethyl)-5-(pyrimidin-5-ylamino)-1H-indazole-3-carboxamide] | < 1000
7 | NC(=O)c1nn(CC(=O)N2C[C@H](F)C[C@H]2C(=O)Nc2cccc(Cl)n2)c2ccc(Nc3cccnn3)cc12 [Compound 11, 1-(2-((2S,4R)-2-(6-chloropyridin-2-ylcarbamoyl)-4-fluoropyrrolidin-1-yl)-2-oxoethyl)-5-(pyridazin-3-ylamino)-1H-indazole-3-carboxamide] | < 1000
8 | NC(=O)c1nn(CC(=O)N2C[C@H](F)C[C@H]2C(=O)Nc2cccc(Cl)n2)c2ccc(Nc3cncnc3)cc12 [Compound 12, 1-(2-((2S,4R)-2-(6-chloropyridin-2-ylcarbamoyl)-4-fluoropyrrolidin-1-yl)-2-oxoethyl)-5-(pyrimidin-5-ylamino)-1H-indazole-3-carboxamide] | < 1000
9 | N#Cc1cnc(Nc2ccc3c(c2)c(C(N)=O)nn3CC(=O)N2C[C@H](F)C[C@H]2C(=O)Nc2cccc(-c3ccccc3Cl)c2F)nc1 [Compound 13, 1-(2-((2S,4R)-2-(2′-chloro-2-fluorobiphenyl-3-ylcarbamoyl)-4-fluoropyrrolidin-1-yl)-2-oxoethyl)-5-(5-cyanopyrimidin-2-ylamino)-1H-indazole-3-carboxamide] | < 1000
10 | NC(=O)c1nn(CC(=O)N2C[C@H](F)C[C@H]2C(=O)Nc2cccc(-c3ccccc3Cl)c2F)c2ccc(Nc3cnc(C(F)(F)F)nc3)cc12 [Compound 14, 1-(2-((2S,4R)-2-(2′-chloro-2-fluorobiphenyl-3-ylcarbamoyl)-4-fluoropyrrolidin-1-yl)-2-oxoethyl)-5-(2-(trifluoromethyl)pyrimidin-5-ylamino)-1H-indazole-3-carboxamide] | < 1000
11 | CC(=O)c1cn(CC(=O)N2C[C@H](F)C[C@H]2C(=O)Nc2cccc(-c3ccccc3Cl)c2F)c2ccc(N(COC(=O)C(C)(C)C)c3cncnc3)cc12 [Compound 15, ((3-acetyl-1-(2-((2S,4R)-2-(2′-chloro-2-fluorobiphenyl-3-ylcarbamoyl)-4-fluoropyrrolidin-1-yl)-2-oxoethyl)-1H-indol-5-yl)(pyrimidin-5-yl)amino)methyl pivalate] | 1000 to 10000
12 | CC(=O)c1cn(CC(=O)N2C[C@H](F)C[C@H]2C(=O)NCc2ccccn2)c2ccc(Nc3cncnc3)cc12 [Compound 17, (2S,4R)-1-(2-(3-acetyl-5-(pyrimidin-5-ylamino)-1H-indol-1-yl)acetyl)-4-fluoro-N-(pyridin-2-ylmethyl) pyrrolidine-2-carboxamide] | < 1000
13 | CC(=O)c1cn(CC(=O)N2C[C@H](F)C[C@H]2C(=O)NCc2cc(F)cc(Cl)c2)c2ccc(Nc3cncnc3)cc12 [Compound 18, (2S,4R)-1-(2-(3-acetyl-5-(pyrimidin-5-ylamino)-1H-indol-1-yl)acetyl)-N-(3-chloro-5-fluorobenzyl)-4-fluoropyrrolidine-2-carboxamide] | < 1000
14 | CC(=O)c1cn(CC(=O)N2C[C@H](F)C[C@H]2C(=O)NCc2cccc(Cl)c2)c2ccc(Nc3cncnc3)cc12 [Compound 19, (2S,4R)-1-(2-(3-acetyl-5-(pyrimidin-5-ylamino)-1H-indol-1-yl)acetyl)-N-(3-chlorobenzyl)-4-fluoropyrrolidine-2-carboxamide] | < 1000
15 | CC(=O)c1cn(CC(=O)N2C[C@H](F)C[C@H]2C(=O)Nc2cncc(Br)c2)c2ccc(Nc3cncnc3)cc12 [Compound 21, (2S,4R)-1-(2-(3-acetyl-5-(pyrimidin-5-ylamino)-1H-indol-1-yl)acetyl)-N-(5-bromopyridin-3-yl)-4-fluoropyrrolidine-2-carboxamide] | < 1000
16 | CC(=O)c1cn(CC(=O)N2C[C@H](F)C[C@H]2C(=O)Nc2cncc(Cl)c2)c2ccc(Nc3cncnc3)cc12 [Compound 22, (2S,4R)-1-(2-(3-acetyl-5-(pyrimidin-5-ylamino)-1H-indol-1-yl)acetyl)-N-(5-chloropyridin-3-yl)-4-fluoropyrrolidine-2-carboxamide] | < 1000
17 | CCN1Cc2ccc(NC(=O)[C@@H]3C[C@@H](F)CN3C(=O)Cn3cc(C(C)=O)c4cc(Nc5cncnc5)ccc43)cc2C1=O [Compound 23, (2S,4R)-1-(2-(3-acetyl-5-(pyrimidin-5-ylamino)-1H-indol-1-yl)acetyl)-N-(2-ethyl-3-oxoisoindolin-5-yl)-4-fluoropyrrolidine-2-carboxamide] | < 1000
18 | CC(=O)c1cn(CC(=O)N2C[C@H](F)C[C@H]2C(=O)Nc2cccc3c2OC(C)(C)C3)c2ccc(Nc3cncnc3)cc12 [Compound 24, (2S,4R)-1-(2-(3-acetyl-5-(pyrimidin-5-ylamino)-1H-indol-1-yl)acetyl)-N-(2,2-dimethyl-2,3-dihydrobenzofuran-7-yl)-4-fluoropyrrolidine-2-carboxamide] | < 1000
19 | CC(=O)c1cn(CC(=O)N2C[C@H](F)C[C@H]2C(=O)Nc2ccc3cn[nH]c3c2)c2ccc(Nc3cncnc3)cc12 [Compound 25, (2S,4R)-1-(2-(3-acetyl-5-(pyrimidin-5-ylamino)-1H-indol-1-yl)acetyl)-4-fluoro-N-(1H-indazol-6-yl)pyrrolidine-2-carboxamide] | < 1000
20 | CC(=O)c1cn(CC(=O)N2C[C@H](F)C[C@H]2C(=O)Nc2ccc(F)c(-c3nnc4n3CCCCC4)c2)c2ccc(Nc3cncnc3)cc12 [Compound 26, (2S,4R)-1-(2-(3-acetyl-5-(pyrimidin-5-ylamino)-1H-indol-1-yl)acetyl)-4-fluoro-N-(4-fluoro-3-(6,7,8,9-tetrahydro-5H-[1,2,4]triazolo[4,3-a]azepin-3-yl)phenyl) pyrrolidine-2-carboxamide] | < 1000
21 | CC(=O)c1cn(CC(=O)N2C[C@H](F)C[C@H]2C(=O)Nc2cccc3c2CN(c2ccccn2)C3)c2ccc(Nc3cncnc3)cc12 [Compound 27, (2S,4R)-1-(2-(3-acetyl-5-(pyrimidin-5-ylamino)-1H-indol-1-yl)acetyl)-4-fluoro-N-(2-(pyridin-2-yl)isoindolin-4-yl)pyrrolidine-2-carboxamide] | 1000 to 10000
22 | CC(=O)c1cn(CC(=O)N2C[C@H](F)C[C@H]2C(=O)NC2CCCc3nc(-c4ccc(F)cc4)sc32)c2ccc(Nc3cncnc3)cc12 (stereo partly drawn) [Compound 28, (2S,4R)-1-(2-(3-acetyl-5-(pyrimidin-5-ylamino)-1H-indol-1-yl)acetyl)-4-fluoro-N-(2-(4-fluorophenyl)-4,5,6,7-tetrahydrobenzo[d]thiazol-7-yl)pyrrolidine-2-carboxamide] | > 10000
23 | CC(=O)c1cn(CC(=O)N2C[C@H](F)C[C@H]2C(=O)Nc2nc(-c3ccccc3Cl)ns2)c2ccc(Nc3cncnc3)cc12 [Compound 29, (2S,4R)-1-(2-(3-acetyl-5-(pyrimidin-5-ylamino)-1H-indol-1-yl)acetyl)-N-(3-(2-chlorophenyl)-1,2,4-thiadiazol-5-yl)-4-fluoropyrrolidine-2-carboxamide] | < 1000
24 | CC(=O)c1cn(CC(=O)N2C[C@H](F)C[C@H]2C(=O)Nc2cccnc2)c2ccc(Nc3cncnc3)cc12 [Compound 31, (2S,4R)-1-(2-(3-acetyl-5-(pyrimidin-5-ylamino)-1H-indol-1-yl)acetyl)-4-fluoro-N-(pyridin-3-yl)pyrrolidine-2-carboxamide] | < 1000
25 | CC(=O)c1cn(CC(=O)N2C[C@H](F)C[C@H]2C(=O)Nc2cncc(Cl)n2)c2ccc(Nc3cncnc3)cc12 [Compound 33, (2S,4R)-1-(2-(3-acetyl-5-(pyrimidin-5-ylamino)-1H-indol-1-yl)acetyl)-N-(6-chloropyrazin-2-yl)-4-fluoropyrrolidine-2-carboxamide] | < 1000
